The results in this text go back to the OligoGym collection.

After the bases stand the sugars from the 5' end (letter, count) and the backbone: PS all phosphorothioate, else s phosphorothioate and o phosphodiester by linkage. Methylation of C is not given here. e = 2'-O-(2-methoxyethyl) (MOE); k = constrained ethyl (cEt); d = 2'-deoxy (DNA); m = 2'-O-methyl

In this data set the target is HSD17B13. The conditions noted are these: ASO, HepaRG.

Take “CTAAAATTGTCTAAAC (sugars k3 d1 m1 d8 k3, PS)”: the target mRNA inhibition (1 µM) came to 13%.
The same measure, in the same setting: in the case of CTAAACTAGTGGTAAT (sugars k3 d10 k3, PS) it was 23%; in that of CTAAAGCAGGCTACTT (sugars k3 d10 k3, PS), 32%; in that of CTAACTAACCTGACAC (sugars k3 d10 k3, PS), 23%.
Still for that read-out and setting: the figure for CTAAGTTAGCCCCCAG (sugars k3 d10 k3, PS) is 15%; for CTAATGAATCATGATT (sugars k3 d10 k3, PS) it is 20%; for CTAATGTATGAGGTCT (sugars k3 d10 k3, PS) it is 46%.
Where the note is “1 µM”, CTAATTTAGTCAACTT (sugars k3 d10 k3, PS) came in with a target mRNA inhibition of 40%.
Same read-out and setting: the figure for “CTACACTAATATTGAG (sugars k3 d9 k3 e1, PS)” is 10%.
CTACACTAATATTGAG (sugars k3 d10 k3, PS) came in with a target mRNA inhibition (1 µM) of 20%.
For CTACATGTAAGGTTTT (sugars k3 d10 k3, PS), the target mRNA inhibition (1 µM) was 11%.
Same read-out and setting: the figure for CTACCTCTAAGTTAGC (sugars k3 d10 k3, PS) is 6%; for CTAGAATTAAGGGCTA (sugars k3 d10 k3, PS) it is 42%; for CTAGATTCTACACTAA (sugars k3 d10 k3, PS) it is 17%.
The sequence “CTAGGGAAATCTTTCA (sugars k3 d9 k3 e1, PS)” came in with a target mRNA inhibition (1 µM) of 55%.
Same read-out and setting: the figure for “CTAGTGCCAAACCAAT (sugars k3 d9 k3 e1, PS)” is 61%.
Still for that read-out and setting: the figure for CTAGTGCCAAACCAAT (sugars k3 d10 k3, PS) is 49%.
On to CTAGTTGCAATGAGAT (sugars k3 d10 k3, PS), for which the target mRNA inhibition (1 µM) was 65%.
“CTATAGTAATCACAAG (sugars k3 d9 k3 e1, PS)” came in with a target mRNA inhibition (1 µM) of 53%.
On the same count and under the same terms, the figure for “CTATAGTAATCACAAG (sugars kkdddddddddkekek, PS)” is 36%.
Still for that read-out and setting: the figure for CTATAGTAATTGCTAT (sugars k3 d10 k3, PS) is 0%; for CTATCAGACTTCTTAC (sugars k3 d10 k3, PS) it is 39%; for CTATCATGCCTTCCCC (sugars k3 d10 k3, PS) it is 1%.
Turning to CTCAATAACTGAGTTA (sugars k3 d10 k3, PS), the target mRNA inhibition (1 µM) came to 4%.
On the same count and under the same terms, in the case of CTCATTATAAGCTAAC (sugars k3 d10 k3, PS) it was 13%.
The sequence CTCATTTATGTACCAA (sugars k3 d10 k3, PS) returned a target mRNA inhibition (0.02 µM) of 0%; a target mRNA inhibition (0.078 µM) of 50%; a target mRNA inhibition (0.313 µM) of 75%; a target mRNA inhibition (1 µM) of 87%; a target mRNA inhibition (1.25 µM) of 79%.
Regarding CTCCAAATTCCCAACC (sugars k3 d10 k3, PS), the target mRNA inhibition (1 µM) was found to be 31%.
Under “1 µM”, CTCCAAGGAGTGCATC (sugars k3 d10 k3, PS) showed a target mRNA inhibition of 53%.
Same read-out and setting: in the case of CTCCACACCGCGCTTA (sugars k3 d10 k3, PS) it was 7%; in that of CTCCAGTAATGAGAAC (sugars k3 d10 k3, PS), 40%; in that of CTCCCACAAAACTAAC (sugars k3 d10 k3, PS), 13%.
On the same count and under the same terms, the figure for CTCCTTATTTGTTAGA (sugars k3 d10 k3, PS) is 26%; for CTCGGGAAGTTTAGAC (sugars k3 d10 k3, PS) it is 47%.
On to CTCTAAGTTAGCCCCC (sugars k3 d10 k3, PS), for which the target mRNA inhibition (1 µM) is 38%.
Same read-out and setting: in the case of CTCTAGGAGATATAAC (sugars k3 d10 k3, PS) it was 49%; in that of CTCTATAATAAGGTAA (sugars k3 d10 k3, PS), 0%; in that of CTCTATTGGGCCAGGC (sugars k3 d10 k3, PS), 46%.
For the sequence CTCTATTGGTGTTTTA (sugars k3 d10 k3, PS), the target mRNA inhibition (1 µM) amounted to 32%.
The same measure, in the same setting: in the case of CTCTCTAAAGGGCTGC (sugars k3 d10 k3, PS) it was 55%; in that of “CTCTGGGACCAAGGAT (sugars k3 d1 m1 d8 k3, PS)”, 43%; in that of “CTCTGGGACCAAGGAT (sugars kkdddddddddkekek, PS)”, 39%.
For the sequence CTCTTGGGTCCATTGT (sugars k3 d10 k3, PS), the target mRNA inhibition (1 µM) stood at 40%.
The same measure, in the same setting: the figure for CTGCAACTTTTAGTCA (sugars k3 d10 k3, PS) is 21%; for CTGCTGCTAGTGCCAA (sugars k3 d10 k3, PS) it is 57%; for CTGGAACAATATGGGA (sugars k3 d10 k3, PS) it is 38%.
With CTGGGATAGTGGAGGA (sugars k3 d10 k3, PS), the target mRNA inhibition (1 µM) was 21%.
For CTGGTTTCATAACCTA (sugars k3 d10 k3, PS), under “1 µM”, the target mRNA inhibition turned out to be 9%.
On the same count and under the same terms, in the case of CTGTAGGACTCTGCTC (sugars k3 d10 k3, PS) it was 48%; in that of CTGTCTCCAATACAGG (sugars k3 d10 k3, PS), 29%.
Still for that read-out and setting: the figure for “CTGTGTTAGCTTTAAT (sugars k3 d1 m1 d8 k3, PS)” is 41%; for “CTGTGTTAGCTTTAAT (sugars k3 d9 k3 e1, PS)” it is 50%.
CTGTTGCAAGTTCTTC (sugars k3 d10 k3, PS): the target mRNA inhibition is 0% (0.02 µM); 0% (0.078 µM); 49% (0.313 µM); 85% (1 µM); 73% (1.25 µM); 88% (5 µM).
In the case of CTTAAACCTTCCCTGT (sugars k3 d10 k3, PS), the target mRNA inhibition (1 µM) stood at 22%.
“CTTAAACCTTCCCTGT (sugars kkdddddddddkekek, PS)” yielded a target mRNA inhibition (1 µM) of 36%.
For the sequence CTTACTAAGGAAATTC (sugars k3 d10 k3, PS), the target mRNA inhibition (1 µM) was 19%.
Under “1 µM”, CTTAGCTGTGCACTCA (sugars k3 d10 k3, PS) displayed a target mRNA inhibition of 60%.
For CTTAGTTCATTGTGAT (sugars k3 d10 k3, PS), the target mRNA inhibition (1 µM) stood at 69%.
CTTATGAAGTTAGTAT (sugars k3 d10 k3, PS): the target mRNA inhibition (1 µM) came out at 43%.
In the case of CTTATGTAATAGCCAG (sugars k3 d10 k3, PS), for the setting “1 µM”, the target mRNA inhibition was 74%.
For the sequence CTTATTAAGTACTGTG (sugars k3 d10 k3, PS), where the note is “1 µM”, the target mRNA inhibition is 0%.
In the case of CTTCACCTGATTTAGA (sugars k3 d10 k3, PS), the target mRNA inhibition (1 µM) was 7%.
For the sequence “CTTCATAGTGGACTTC (sugars k3 d9 k3 e1, PS)”, for the setting “1 µM”, the target mRNA inhibition is 57%.
CTTCATAGTGGACTTC (sugars k3 d10 k3, PS): the target mRNA inhibition runs as follows: (0.02 µM) 3%; (0.078 µM) 4%; (0.313 µM) 28%; (1 µM) 79%; (1.25 µM) 66%; (5 µM) 93%.
On to CTTCATCCTTGGTGCT (sugars k3 d10 k3, PS), for which, under “1 µM”, the target mRNA inhibition came out at 30%.
The same measure, in the same setting: the figure for “CTTGAACAGTCTTAAA (sugars k3 d1 m1 d8 k3, PS)” is 49%.
In the case of CTTGAATGAGTGGTCT (sugars k3 d10 k3, PS), the target mRNA inhibition came out at 10% (0.02 µM); 16% (0.078 µM); 46% (0.313 µM); 64% (1 µM); 69% (1.25 µM); 88% (5 µM).
Consider “CTTGATCTCTTAGCTG (sugars k3 d1 m1 d8 k3, PS)”, for which, for the setting “1 µM”, the target mRNA inhibition is 32%.
On the same count and under the same terms, the figure for “CTTGATCTCTTAGCTG (sugars kkdddddddddkekek, PS)” is 49%.
In turn, CTTGATGATTCTGACT (sugars k3 d10 k3, PS) gave a target mRNA inhibition (1 µM) of 57%.
Sequence “CTTGATGTAGTGGGAG (sugars k3 d1 m1 d8 k3, PS)” registered a target mRNA inhibition (1 µM) of 67%.
In turn, CTTGATTAAGGCAAAG (sugars k3 d10 k3, PS) returned a target mRNA inhibition (1 µM) of 38%.
CTTGCAGAAATTCACC (sugars k3 d10 k3, PS) displayed a target mRNA inhibition (1 µM) of 40%.
The sequence CTTTCATAGGGAGACC (sugars k3 d10 k3, PS) showed a target mRNA inhibition (0.02 µM) of 20%; a target mRNA inhibition (0.078 µM) of 2%; a target mRNA inhibition (0.313 µM) of 54%; a target mRNA inhibition (1 µM) of 73%; a target mRNA inhibition (1.25 µM) of 75%; a target mRNA inhibition (5 µM) of 86%.
CTTTGAGACTCTTGTT (sugars k3 d10 k3, PS) displayed a target mRNA inhibition (1 µM) of 61%.
Under “1 µM”, “CTTTGCAGCATTGATT (sugars k3 d1 m1 d8 k3, PS)” gave a target mRNA inhibition of 19%.
Same read-out and setting: the figure for CTTTGCAGCATTGATT (sugars k3 d10 k3, PS) is 47%; for GAAACCTTCATGCTAG (sugars k3 d10 k3, PS) it is 31%.
Same read-out and setting: in the case of GAAATATAGAGGGTCC (sugars k3 d10 k3, PS) it was 22%; in that of GAAATTCACCTTGACT (sugars k3 d10 k3, PS), 41%; in that of “GAAATTGATACACCAA (sugars k3 d9 k3 e1, PS)”, 64%.
Still for that read-out and setting: the figure for “GAACAATATGGGATGA (sugars k3 d1 m1 d8 k3, PS)” is 50%.
Regarding “GAACAATATGGGATGA (sugars k3 d9 k3 e1, PS)”, under “1 µM”, the target mRNA inhibition worked out at 52%.
Sequence GAACACTTTCACTGGG (sugars k3 d10 k3, PS) returned a target mRNA inhibition (1 µM) of 0%.
For the setting “1 µM”, GAAGAAGGACTTTCAT (sugars k3 d10 k3, PS) showed a target mRNA inhibition of 40%.
Take GAAGCCACTGTGACGA (sugars k3 d10 k3, PS): the target mRNA inhibition (1 µM) came out at 58%.
GAAGTGCTTTTGTGAT (sugars k3 d10 k3, PS) displayed a target mRNA inhibition (1 µM) of 34%.
